This experiment addresses T1, human vasopressin V2 receptor subtype (Homo sapiens, UniProt P30518).
T1 construct: host or cells: CHO cells, stably transfected (pZeoSV vector)
The experiment is described as follows: Vasopressin binding in CHO cell membranes expressing human vasopressin V2 subtype receptors ([3H]arginine vasopressin radioligand binding). Conditions: 100 nM. Here is the method:
Vasopressin Binding in Chinese Hamster Ovary Cell Membranes Expressing Human Vasopressin V2 Subtype Receptors
Chinese Hamster Ovary (CHO) cells stably transfected with the human V2 subtype receptors were obtained from M. Thibonnier, Case Western Reserve University School of Medicine, Cleveland, Ohio.
The trypsin is removed by aspiration and the cells dislodged by tapping. Cell Culture medium (e.g. 30 mL for 1:30 split) is immediately added and mixed well to inactivate trypsin. 1 mL of detached cells is added to new culture flasks containing fresh Cell Culture medium (e.g. into 25 mL per T-150 flask), and mixed gently. The cells are incubated at 37° C. in 5% CO2. The medium is changed at 3 to 4 day interval (or as appropriate). […] All steps are done under sterile conditions.
The cells are washed twice gently with Hank's Balanced Salt solution (e.g. use 10 mL per T-150 flask). […] The contents are transferred to centrifuge tubes (50 mL) kept in ice bath. All subsequent steps are done at 4° C. The tubes are centrifuged at 300×g for 15 min (1380 rpm on SORVAL, Model RT6000D, using the rotor for 50 mL tubes). The supernatant is discarded and the cells suspended in homogenizing buffer(10 mM Tris-HCl containing 0.25 M sucrose and 1 mM EDTA, pH 7.4) ensuring that the volume of the buffer is about ten times the volume of the cell pellet. The cells are pooled into a centrifuge tube (50 mL) and homogenized with Polytron at setting 6 for 10 sec. The homogenate is transferred into a Potter-Elvjehm homogenizer and homogenized with 3 strokes. The homogenate is centrifuged at 1500×g for 60 min at 4° C. (3100 rpm using SORVAL, model RT6000D, using the rotor for 50 mL tubes). The pellet is discarded. The supernatant is centrifuged at 100,000×g for 60 min. at 4° C. (Beckman L8-80M ultracentrifuge; spin at 37,500 rpm with rotor type 70 Ti for 50 mL tubes; 38,000 rpm with type 80Ti for 15 mL tubes; or 35,800 rpm with rotor type 45Ti). The supernantant is discarded and the pellet suspended in 3 to 4 mL of Tris buffer (50 mM TRIS-HCl, pH 7.4). The protein content is estimated by the Bradford or Lowry method. The volume of the membrane suspension is adjusted with the membrane buffer (50 mM Tris-HCl containing 0.1% BSA and 0.1 mM PMSF) to give 3.0 mg/mL (or as appropriate) of protein. The membranes are aliquoted and stored at −70° C.
In wells of a 96-well format microtiter plate, is added 90, 110 or 130 μL (to make up a final volume of 200 μL) of assay buffer containing 50 mM of Tris-HCl (pH 7.4), […], 1 mg % aprotinin, 1 mg % leupeptin, 2 mg % 1,10-phenanthroline, 10 mg % trypsin inhibitor, and 0.1 mM PMSF. The inhibitors are added on the day of the experiment. The components are mixed at room temperature, and then kept in ice bath following adjustment of the pH to 7.4. […] For vasopressin and other peptide ligands 20 μL of 50% DMSO is added and the assay buffer volume is adjusted accordingly. To each well is added 50 μL of frozen membrane suspension thawed immediately prior to use and diluted in assay buffer to the required concentration (equivalent to 25 to 50 μg of protein/well as needed). 20 μL of 8 nM [^3H]arginine vasopressin ligand in the assay buffer, prepared just before use is added and incubated at room temperature for 60 min. shaking the plate on a mechanical shaker for the first 15 min. The incubation is stopped by rapid filtration of the plate contents followed by wash with ice-cold buffer (50 mM Tris-HCl, pH 7.4) using a cell harvester (Tomtek and Printed filtermat-B filter paper). The filter paper is thoroughly dried (7–12 min. in a microwave oven) and impregnated with MeltiLex B/H melt-on scintillation wax sheets and the radioactivity counted in a betaplate scintillation counter.
Binding data is either reported as percent inhibition at a certain concentration or if an IC50 was calculated, as a nanomolar concentration.
T1 sequence (P30518 whole entry): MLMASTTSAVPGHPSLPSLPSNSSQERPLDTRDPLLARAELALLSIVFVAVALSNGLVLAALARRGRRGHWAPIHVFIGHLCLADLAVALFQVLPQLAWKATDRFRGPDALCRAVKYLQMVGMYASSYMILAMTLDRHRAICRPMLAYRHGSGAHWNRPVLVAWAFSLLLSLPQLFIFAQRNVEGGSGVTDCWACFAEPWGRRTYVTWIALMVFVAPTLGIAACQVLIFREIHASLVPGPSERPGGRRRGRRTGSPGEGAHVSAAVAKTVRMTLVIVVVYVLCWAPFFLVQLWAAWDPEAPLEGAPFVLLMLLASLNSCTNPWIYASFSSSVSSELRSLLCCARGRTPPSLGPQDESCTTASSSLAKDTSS
With `COc1ccccc1-c1ccc(C(=O)N2Cc3ccc(C(=O)N(C)CCc4ccccn4)n3Cc3ccccc32)cc1OC` [Example 64, 10-[(2,2′-Dimethoxy-[1,1′-biphenyl]-4-yl)carbonyl]-N-methyl-N-[2-(2-pyridinyl)ethyl]-10,11-dihydro-5H-pyrrolo[2,1-c][1,4]benzodiazepine-3-carboxamide], the inhibition at 0.1 µM worked out at 13%.
On to `COc1cc(C(=O)N2Cc3ccc(C(=O)N4CCN(c5ccccn5)CC4)n3Cc3ccccc32)ccc1-c1cccc2ccccc12` [Example 83], for which the “V2 % inhibition @ 100 nM” value amounted to 22%.
Take `COc1cccc(-c2ccc(C(=O)N3Cc4ccc(C(=O)NCc5ccncc5)n4Cc4ccccc43)cc2OC)c1` [Example 98]: the “V2 % inhibition @ 100 nM” value is reported as 10%.
On to `COc1cc(C(=O)N2Cc3ccc(C(=O)N(C)Cc4cccnc4)n3Cc3ccccc32)ccc1-c1ccccc1C` [Example 106, 10-[(2-Methoxy-2′-methyl-[1,1′-biphenyl]-4-yl)carbonyl]-N-methyl-N-(3-pyridinylmethyl)-10,11-dihydro-5H-pyrrolo[2,1-c][1,4]benzodiazepine-3-carboxamide], for which the inhibition at 0.1 µM was -10%.
Consider `COc1cc(-c2ccccc2C)c(Cl)cc1C(=O)N1Cc2ccc(C(=O)N(C)Cc3cccnc3)n2Cc2ccccc21` [Example 107, 10-[(6-Chloro-3-methoxy-2′-methyl-[1,1′-biphenyl]-4-yl)carbonyl]-N-methyl-N-(3-pyridinylmethyl)-10,11-dihydro-5H-pyrrolo[2,1-c][1,4]benzodiazepine-3-carboxamide], for which the inhibition at 0.1 µM stood at 30%.
As for `COc1cccc(-c2cc(OC)c(C(=O)N3Cc4ccc(C(=O)N(C)Cc5cccnc5)n4Cc4ccccc43)cc2Cl)c1` [Example 108, 10-[(6-Chloro-3,3′-dimethoxy-[1,1′-biphenyl]-4-yl)carbonyl]-N-methyl-N-(3-pyridinylmethyl)-10,11-dihydro-5H-pyrrolo[2,1-c][1,4]benzodiazepine-3-carboxamide], the inhibition at 0.1 µM stood at 24%.
Same read-out and setting: as for `COc1cc(C(=O)N2Cc3ccc(C(=O)N(C)Cc4cccnc4)n3Cc3ccccc32)ccc1-c1cccc2ccccc12` [Example 109, 10-[3-Methoxy-4-(naphthalen-1-yl)benzoyl]-N-methyl-N-(3-pyridinylmethyl)-10,11-dihydro-5H-pyrrolo[2,1-c][1,4]benzodiazepine-3-carboxamide], the figure is 0%.
Take `COc1cccc(-c2ccc(C(=O)N3Cc4ccc(C(=O)N(C)Cc5cccnc5)n4Cc4ccccc43)cc2OC)c1` [Example 110]: the “V2 % inhibition @ 100 nM” value was 32%.
Turning to `CN(Cc1cccnc1)C(=O)c1ccc2n1Cc1ccccc1N(C(=O)c1ccc(-c3cccc4ccccc34)cc1Cl)C2` [Example 111, 10-[2-Chloro-4-(naphthalen-1-yl)benzoyl]-N-methyl-N-(3-pyridinylmethyl)-10,11-dihydro-5H-pyrrolo[2,1-c][1,4]benzodiazepine-3-carboxamide], the inhibition at 0.1 µM came to 23%.
On the same count and under the same terms, with `Cc1ccccc1-c1ccc(C(=O)N2Cc3ccc(C(=O)N4CCN(c5ccncc5)CC4)n3Cc3ccccc32)cc1C` [Example 114, {10-[(2,2′-Dimethyl-[1,1′-biphenyl]-4-yl)carbonyl]-10,11-dihydro-5H-pyrrolo[2,1-c][1,4]benzodiazepin-3-yl}[4-(4-pyridinyl)-1-piperazinyl]methanone] the figure was 18%.
The same measure, in the same setting: with `COc1cccc(-c2ccc(C(=O)N3Cc4ccc(C(=O)N5CCN(c6ccncc6)CC5)n4Cc4ccccc43)cc2C)c1` [Example 115, {10-[(3′-Methoxy-2-methyl-[1,1′-biphenyl]-4-yl)carbonyl]-10,11-dihydro-5H-pyrrolo[2,1-c][1,4]benzodiazepin-3-yl}[4-(4-pyridinyl)-1-piperazinyl]methanone] the figure was 8%.
For `COc1ccccc1-c1ccc(C(=O)N2Cc3ccc(C(=O)N4CCN(c5ccncc5)CC4)n3Cc3ccccc32)cc1` [Example 116, {10-[(2′-Methoxy-[1,1′-biphenyl]-4-yl)carbonyl]-10,11-dihydro-5H-pyrrolo[2,1-c][1,4]benzodiazepin-3-yl}[4-(4-pyridinyl)-1-piperazinyl]methanone], the inhibition at 0.1 µM came out at 63%.
`Cc1ccccc1-c1ccc(C(=O)N2Cc3ccc(C(=O)N4CCN(c5ccncc5)CC4)n3Cc3ccccc32)cc1` [Example 117, {10-[(2′-Methyl-[1,1′-biphenyl]-4-yl)carbonyl]-10,11-dihydro-5H-pyrrolo[2,1-c][1,4]benzodiazepin-3-yl}[4-(4-pyridinyl)-1-piperazinyl]methanone]: the inhibition at 0.1 µM was determined as 4%.
For the compound `COc1cc(C(=O)N2Cc3ccc(C(=O)N4CCN(c5ccncc5)CC4)n3Cc3ccccc32)ccc1-c1ccccc1C` [Example 118], the “V2 % inhibition @ 100 nM” value is recorded as −10%.
`COc1cc(-c2ccccc2C)c(Cl)cc1C(=O)N1Cc2ccc(C(=O)N3CCN(c4ccncc4)CC3)n2Cc2ccccc21` [Example 119, {10-[(6-Chloro-3-methoxy-2′-methyl-[1,1′-biphenyl]-4-yl)carbonyl]-10,11-dihydro-5H-pyrrolo[2,1-c][1,4]benzodiazepin-3-yl}[4-(4-pyridinyl)-1-piperazinyl]methanone]: the inhibition at 0.1 µM is 17%.
On the same count and under the same terms, as for `COc1cccc(-c2cc(OC)c(C(=O)N3Cc4ccc(C(=O)N5CCN(c6ccncc6)CC5)n4Cc4ccccc43)cc2Cl)c1` [Example 120, {10-[(6-Chloro-3,3′-dimethoxy-[1,1′-biphenyl]-4-yl)carbonyl]-10,11-dihydro-5H-pyrrolo[2,1-c][1,4]benzodiazepin-3-yl}[4-(4-pyridinyl)-1-piperazinyl]methanone], the figure is 16%; as for `COc1cc(C(=O)N2Cc3ccc(C(=O)N4CCN(c5ccncc5)CC4)n3Cc3ccccc32)ccc1-c1cccc2ccccc12` [Example 121, {10-[3-Methoxy-4-(naphthalen-1-yl)benzoyl]-10,11-dihydro-5H-pyrrolo[2,1-c][1,4]benzodiazepin-3-yl}[4-(4-pyridinyl)-1-piperazinyl]methanone], -4%; as for `COc1ccccc1-c1ccc(C(=O)N2Cc3ccc(C(=O)N4CCN(c5ccncc5)CC4)n3Cc3ccccc32)cc1OC` [Example 122, {10-[(2,2′-Dimethoxy-[1,1′-biphenyl]-4-yl)carbonyl]-10,11-dihydro-5H-pyrrolo[2,1-c][1,4]benzodiazepin-3-yl}[4-(4-pyridinyl)-1-piperazinyl]methanone], -10%.
Still for that read-out and setting: as for `COc1cccc(-c2ccc(C(=O)N3Cc4ccc(C(=O)N5CCN(c6ccncc6)CC5)n4Cc4ccccc43)cc2OC)c1` [Example 123, {10-[(2,3′-Dimethoxy-[1,1′-biphenyl]-4-yl)carbonyl]-10,11-dihydro-5H-pyrrolo[2,1-c][1,4]benzodiazepin-3-yl}[4-(4-pyridinyl)-1-piperazinyl]methanone], the figure is 30%; as for `O=C(c1ccc2n1Cc1ccccc1N(C(=O)c1ccc(-c3cccc4ccccc34)cc1Cl)C2)N1CCN(c2ccncc2)CC1` [Example 124, {10-[2-Chloro-4-(naphthalen-1-yl)benzoyl]-10,11-dihydro-5H-pyrrolo[2,1-c][1,4]benzodiazepin-3-yl}[4-(4-pyridinyl)-1-piperazinyl]methanone], 18%.

One may read the inhibition as the drop in the measured response relative to a control, in per cent.

The record behind these values is patent US7064120B2, “Tricyclic pyridyl carboxamides and derivatives thereof tocolytic oxytocin receptor antagonists” (Wyeth, priority 2001, dated 2006).
